Measurements as given in US20240041975A1, “ANTICANCER PEPTIDE AND USE THEREOF FOR INHIBITING CANCER CELL VIABILITY” (NATIONAL TSING HUA UNIVERSITY, priority 2022, published 2024).

Key:
[1] = tested on: Human non-small cell lung cancer line PC9; experiment: MTT assay cytotoxicity, PC9; assay type: cell-based; details: 24 hr treatment, read-out: anticancer activity Human non-small cell lung cancer line PC9
Procedure: (§1) Human non-small cell lung cancer line A549, PC9, and H1975 (Osimertinib sensitive; Gefitinib toleran; belonged to T790M mutations), oral squamous cell carcinoma cell line OECM-1 were cultured in RPMI medium supplemented with 10% fetal bovine serum (FBS) and antibiotic. Human oral squamous cell carcinoma cell line C9 and human diploid fibroblast (HFW) were cultured in DMEM medium supplemented with 10% fetal bovine serum (FBS) and antibiotic. Cells were cultured in a humidified incubator containing 5% CO2 at 37° C.
(§2) The cytotoxicity of cancer cells via administrating the peptides were measured by the MTT assay. All cancer cell lines were seeded in a 96-well plate at a density of 5×10^4 cells per well and incubated for 24 hr. After the medium was removed, using the anti-cancer peptides ranged from 50 μM to 0.78 μM for treatment, diluted in the growth medium, and administered 24 hr. The media was then removed, determined cell viability by incubated for 3 hours at 37 C with the addition of 100 μL Thiazolyl Blue Tetrazolium Bromide (MTT 0.5 mg/ml in PBS; M2128, Sigma-Aldrich) diluted by ratio 1:9 in the growth medium. Next, the medium with MTT solution was removed, added 100 μl Dimethyl Sulfoxide (DMSO, D4540, Sigma-Aldrich) for dissolving the formazan crystal. Cell survival rate was calculated by measuring the absorbance at 570 nm using a microplate reader (Sunrise TM, TECAN, Switzerland). Medium without peptide and mixed with H2O2 represented positive and negative control, respectively. The experiments were repeated at least three times. Cell Viability percentage was calculated as follows: […]

[2] = tested on: oral squamous cell carcinoma cell line OECM-1; experiment: MTT assay cytotoxicity, OECM-1; assay type: cell-based; details: 24 hr treatment, read-out: anticancer activity oral squamous cell carcinoma cell line OECM-1
Procedure: as §1, §2

[3] = MTT assay cell cytotoxicity, normal cell HFW; assay type: cell-based; details: human, human diploid fibroblast (HFW) cells, 24 hr treatment
Procedure: as §1, §2

[4] = tested on: Human non-small cell lung cancer line H1975; experiment: MTT assay cytotoxicity, H1975; assay type: cell-based; details: 24 hr treatment, read-out: anticancer activity Human non-small cell lung cancer line H1975
Procedure: as §1, §2

[5] = tested on: Human non-small cell lung cancer line A549; assay type: cell-based; details: for IC50: 24 h
Procedure: as §1, §2

[6] = tested on: Human oral squamous cell carcinoma cell line C9; experiment: MTT assay cytotoxicity, C9; assay type: cell-based; details: for activity against oral squamous cell carcinoma cell line C9 (in words): FIG. 1E; for IC50: MTT, 24 hr treatment, read-out: anticancer activity oral squamous cell carcinoma cell line C9
Procedure: as §1, §2

[7] = tested on: human lung cancer cell/cell line and oral squamous cell carcinoma cell/cell line; experiment: MTT assay, overall anticancer spectrum; assay type: cell-based; details: for efficiency to the human lung cancer cell line: human lung cancer cell lines, FIG. 1A-1C
Procedure: as §1, §2

[8] = tested on: Human non-small cell lung cancer cell A549; experiment: Extracellular cytochrome c release (ELISA); assay type: cell-based; details: 4×IC50 (6.452 μM)
Procedure: FIG. 5 depict that release of mitochondria DAMPs Cytochrome c was detected by Elisa kit. Human non-small cell lung cancer cell A549 administrated with 6.452 μM (4×IC50) of K1R12-AGP-RW for different time period (30 min, 60 min, 90 min, 120 min, […]). Data are presented as means ±SEM, ***p<0.005, **p<0.01, versus the control group.
The ELISA kit for detection of cytochrome c was obtained from the R&D System (Minneapolis, MN, USA). Before the experiment, prepare a buffer solution or reagent from the kit. Seed cancer cells 1×10^5 in 96 well incubated 24 hours. After 24 hours, substitute with 4×IC50 K1R12-AGP-RW dilutions in medium, and incubate designated time points (30 min, 60 min, 90 min, 120 min). Following the supernatant was centrifuged at 16000 xg for 10 minutes. Add 50 μL supernatant and 75 μL of cytochrome c conjugate to each well. Then, add 50 μL of standard, control, or sample per well. Mix by tapping the plate frame for 1 minute. Cover with the adhesive strip provided. Incubate for 2 hours at room temperature. A plate layout is provided to record standards and samples assayed. Then use the wash buffer washed 5 times with 400 μL. The last wash removes any remaining Wash Buffer by decanting. […] Detection the cytochrome c at absorbance 450 nm using a microplate reader (Sunrise TM, TECAN, Switzerland).

A549 cell = experiment: Killing kinetics (MTT time course); assay type: cell-based, human; details: 4×IC50 (6.452 μM) vs 2×IC50 (3.226 μM), within 240 minutes
Procedure: To evaluate the cytotoxic activity and time course against the A549 cell, two different concentrations of K1R12-AGP-RW 2×IC50 (3.226 μM), 4×IC50 (6.452 μM) were used. Cells were seeded as described as MTT assay, after 24 hours culture, cell were incubated with 2×IC50 and 4×IC50 peptide solution for 60 minutes, 120 minutes, 180 minutes, 240 minutes. Further incubated in 10% MTT solution for an additional 4 hours. Remove MTT solution and Dimethyl Sulfoxide (DMSO, D4540, Sigma-Aldrich) was added to formazan crystal solubilization. Using a microplate reader (Sunrise TM, TECAN, Switzerland) detecting the absorbance at 570 nm. The experiments were repeated three times independently.

[9] = tested on: Human non-small cell lung cancer cell A549; experiment: ATP release (ENLITEN ATP assay kit, luciferin-luciferase); assay type: cell-based; details: 4×IC50 (6.452 μM)
Procedure: FIG. 4 depict that Detection ATP release into supernatant was detect after adminstrated with K1R12-AGP-RW. Human non-small cell lung cancer cell A549 administrated with 6.452 μM (4×IC50) of K1R12-AGP-RW for different time period (30 min, 60 min, 90 min, 120 min). Data are presented as means ±SEM, ***p<0.005, **p<0.01, versus the control group. Data of FIG. 4 were analyzed using the one-way ANOVA and multiple comparison test.
The ENLITEN ATP assay kit (Promega, Madison, WI, FF2000) was used for the detection of ATP release levels. Above all seeds, cancer cells in 96 well with 1×10^5 cell per well, incubated 24 hours. On day 2, replace the medium with the fresh medium containing 4×IC50 K1R12-AGP-RW incubated at different time points (30 min, 60 min, 90 min, 120 min). The supernatant was college and centrifuged 500 xg for 10 minutes to remove debris. Add reconstituted rL/L reagent with the sample and detection immediately, expressed as relative light units (RLU). Serially diluted ATP standard to calculating ATP concentrations generates a regression curve. All reagents in this kit must be returned to room temperature before use.

[10] = tested on: Human non-small cell lung cancer cell A549; experiment: HMGB1 secretion by western blot; assay type: cell-based; details: 4×IC50 (6.452 μM)
Procedure: FIG. 3 depict that the release level of HMGB1 was analyzed by Western Blot. Human non-small cell lung cancer cell A549 administrated with 6.452 μM (4×IC50) of K1R12-AGP-RW for different time period (60 min, 120 min, 240 min), the HMGB1 release form lysate (L) to the supernatant (S). A549 treated with medium without serum as control group.
In one embodiment, cancer cells were seeded with 5×10^5 cells/well in 6-cm polystyrene in complete medium and allowed to adhere 24 hr. Cells were treated with K1R12-AGP-IR, K1R12-AGP-RW, K1R12-AGP-RI at 4×IC50 dilution in medium without serum and incubated at 37° C. for different time points (60 min,120 min,240 min). RPMI medium without peptide treated for 24 hr which was used as a negative control. Supernatants (S) were collected and centrifuged at 1,500 rcf for 5 minutes. Cell lysates (L) use 500 μL Trypsin-EDTA harvested after centrifuged at 750 g for 5 minutes and washing lysate twice with PBS. And addition 150 μL RIPA and protease inhibitor blended buffer, then centrifugation same condition with supernatant(S). Sonication with 5 cycle number, time on or off 30 sec, and centrifugation for 10 minutes, 1400 g at 4° C., thereafter lysed using a 6× Sample buffer, 0.1M DTT (Sigma), and water. Protein concentrations of cell extracts were determined by Bradford reagent. Both supernatants and lysate were boiled in 80° C. 10 minutes and resolved by 12% sodium dodecyl sulfate-polyacrylamide gel electrophoresis (SDS-PAGE), and then electro transferred to a polyvinylidene difluoride (PVDF) membrane (Millipore). The membrane was blocked in 5% skimmed milk and incubated with the HMGB1 antibody (rabbit, polyclonal, Abcam ab 18256). The membrane was then rinsed several times with TB ST, incubated with horseradish peroxidase (HRP)-conjugated secondary antibody (Abcam ab6721). The signals were visualized by enhanced chemiluminescence (ECL) and recorded by a detected system (Image Quant LAS 4000mini).

[11] = tested on: Human non-small cell lung cancer cell A549; experiment: ROS release (DCFDA assay); assay type: cell-based; details: 4×IC50 (6.452 μM); 120 minutes
Procedure: FIG. 6 depict that release of ROS from cancer cells were administrated with the peptide. Human non-small cell lung cancer cell A549 administrated with 6.452 μM (4×IC50) of K1R12-AGP-RW for 120 min. The cells of control group were treated with RPMI-1640 without phenol red. Data are presented as means ±SEM, **p<0.05, versus the control group. Data of FIG. 6 were analyzed by Student's t-test.
The 2′,7′-dichlorofluorescin diacetate (DCFDA) intracellular ROS detection assay kit from Abcam (UK, ab113851) was used for measuring ROS release. Cells were seeded in a 96 well black clear bottom plate with 4×10^4 per well, culture 24 hours. Remove medium and washed once in pre-warm 1× PBS with 100 μl per well. Furthermore, cells were treated with 25 μM DCFDA in 1× buffer solution incubated for 120 minutes. Washed again with a buffer solution of 100 μL/well, before adding the 4×IC50 K1R12-AGP-RW dissolved in RPMI without phenol red, and incubated 60,120 and 240 minutes. Cells incubated with RPMI without phenol red were used as a negative control, and the positive control was tertbutyl hydroperoxide (TBHP). Using a fluorescence plate reader (VICTOR3, PerkinElmer, USA) determined at an excitation wavelength of 485 nm and an emission wavelength of 535 nm.

| Substance | IC50 [1] [µM] | IC50 [2] [µM] | IC50 at 24 h [3] [µM] | IC50 [4] [µM] | IC50 [5] [µM] | activity against oral squamous cell carcinoma cell line C9 (in words) [6] | IC50 [6] [µM] | anticancer activity spectrum ([7]; human lung cancer and oral squamous cell carcinoma cell lines, MTT) | efficiency to the human lung cancer cell line [7] | cytochrome c release ([8]; 120 minutes) | cytochrome c release versus untreated cell ([8]; 240 minutes) | killing kinetics, 4×IC50 versus 2×IC50 (A549 cell) | ATP secretion ([9]; after 30 minutes, with time increased) | ATP secretion ([9]; within 30 minutes) | HMGB1 in cell lysate (L) ([10]; 60, 120, 240 minutes, time-dependent) | HMGB1 in supernatant (S) ([10]; after 120 minutes) | HMGB1 in supernatant (S) ([10]; after 240 minutes) | ROS release versus untreated cell [11] | inhibition of A549 compared with the other cancer cells ([5]; MTT) |
| --- | --- | --- | --- | --- | --- | --- | --- | --- | --- | --- | --- | --- | --- | --- | --- | --- | --- | --- | --- |
| Ac-KRIVQRIKDFLRAGPIKDFLR-NH2 [SEQ ID NO: 5, Ac-KRIVQRIKDFLR-AGP-IKDFLR-NH2] | 10.5 | 11.5 | 13.5 | 11.9 | 6.26 | weak | 25.3 | broad-spectrum anticancer activity | good efficiency |  |  |  |  |  |  |  |  |  |  |
| Ac-KRIVQRIKDFLRAGPRRWWRW-NH2 [SEQ ID NO: 6, Ac-KRIVQRIKDFLR-AGP-RRWWRW-NH2] | 5.42 | 4.56 | 11.1 | 10.9 | 1.61 |  | 4.41 |  |  | release at a certain level and keep stabilize | significant increase | more rapid kill cancer cells | reduced | higher level | reduce | slight increase | complete release into the supernatant(S) | significant increase | more effective |
| Ac-KRIVQRIKDFLRAGPRRLVRI-NH2 [SEQ ID NO: 7, Ac-KRIVQRIKDFLR-AGP-RRLVRI-NH2] | 16.8 | 11.2 | 10.4 | 13.7 | 3.86 | weak | 30.4 |  | good efficiency |  |  |  |  |  |  |  |  |  |  |
